From PubChem BioAssay (NCI)
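Compound exposure: 48 hours, 5 concentrations, 96-well plates. GI50 = concentration required for 50% inhibition of growth. TGI marks complete inhibition of growth.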

Assays:
Test in all cases: NCI anticancer screen, dose series, 48 h
[1] = system: COLO 205 colon
[2] = system: UO-31 renal
[3] = system: NCI-H226 lung
[4] = system: 786-0 renal
[5] = system: CCRF-CEM leukemia
[6] = system: LOX IMVI melanoma
[7] = system: EKVX NSCLC
[8] = system: SF-539 CNS
[9] = system: DU-145 prostate
[10] = system: MCF7 breast
[11] = system: UACC-62 melanoma
[12] = system: RPMI-8226 leukemia
[13] = system: SR leukemia
[14] = system: SW-620 colon
[15] = system: SK-OV-3 ovarian
[16] = system: OVCAR-4 ovarian
[17] = system: SNB-75 CNS
[18] = system: HCC-2998 colon
[19] = system: HCT-116 colon
[20] = system: NCI-H23 lung
[21] = system: HL-60(TB) leukemia
[22] = system: OVCAR-8 ovarian
[23] = system: HS 578T breast
[24] = system: SK-MEL-28 melanoma
[25] = system: MOLT-4 leukemia
[26] = system: OVCAR-5 ovarian
[27] = system: MALME-3M melanoma
[28] = system: IGROV1 ovarian
[29] = system: SF-295 CNS
[30] = system: A498 renal
[31] = system: HOP-92 NSCLC
[32] = system: ACHN renal
[33] = system: MDA-MB-231 breast
[34] = system: OVCAR-3 ovarian
[35] = system: SNB-19 CNS
[36] = system: RXF 393 renal
[37] = system: NCI-H460 lung
[38] = system: HOP-62 NSCLC
[39] = system: NCI/ADR-RES ovarian
[40] = system: PC-3 prostate
[41] = system: UACC-257 melanoma
[42] = system: HT29 colon
[43] = system: SF-268 CNS
[44] = system: BT-549 breast
[45] = system: HCT-15 colon
[46] = system: M14 melanoma
[47] = system: SN12C renal
[48] = system: K-562 leukemia
[49] = system: NCI-H522 lung
[50] = system: U251 CNS
[51] = system: TK-10 renal
[52] = system: SK-MEL-5 melanoma
[53] = system: A549 NSCLC
[54] = system: CAKI-1 renal

With `COc1ccc(-c2oc3cc(O)cc(O)c3c(=O)c2OC)cc1O` as the compound, how does the GI50 [1] read?
Its GI50 is > 16500 nM.

What about the TGI [1] of the same compound?
The TGI was > 16500 nM.

And the GI50 [2]?
The GI50 was 1860 nM.

What about the TGI [2] of the same compound?
The TGI was > 16500 nM.

What about the GI50 [3] of the same compound?
Its GI50 is > 16500 nM.

And the TGI [3]?
Its TGI is > 16500 nM.

And the GI50 [4]?
Its GI50 is 4870 nM.

And the TGI [4]?
Its TGI is > 16500 nM.

And the GI50 [5]?
The GI50 was 853 nM.

And the TGI [5]?
The TGI was > 16500 nM.

What about the GI50 [6] of the same compound?
Its GI50 is 1020 nM.

And the TGI [6]?
Its TGI is > 16500 nM.

And the GI50 [7]?
The GI50 was 6420 nM.

What about the TGI [7] of the same compound?
Its TGI is > 16500 nM.

And the GI50 [8]?
Its GI50 is 495 nM.

And the TGI [8]?
Its TGI is 1720 nM.

And the GI50 [9]?
The GI50 was 1100 nM.

What about the TGI [9] of the same compound?
The TGI was > 16500 nM.

And the GI50 [10]?
The GI50 was 762 nM.

And the TGI [10]?
Its TGI is > 16500 nM.

What about the GI50 [11] of the same compound?
The GI50 was 880 nM.

And the TGI [11]?
Its TGI is > 16500 nM.

And the GI50 [12]?
Its GI50 is 726 nM.

What about the TGI [12] of the same compound?
Its TGI is > 16500 nM.

What about the GI50 [13] of the same compound?
The GI50 was 627 nM.

And the TGI [13]?
The TGI was > 16500 nM.

What about the GI50 [14] of the same compound?
Its GI50 is 665 nM.

And the TGI [14]?
The TGI was > 16500 nM.

And the GI50 [15]?
The GI50 was 1520 nM.

And the TGI [15]?
Its TGI is > 16500 nM.

And the GI50 [16]?
The GI50 was 3160 nM.

What about the TGI [16] of the same compound?
Its TGI is > 16500 nM.

What about the GI50 [17] of the same compound?
Its GI50 is 406 nM.

And the TGI [17]?
The TGI was 3450 nM.

And the GI50 [18]?
Its GI50 is 4630 nM.

What about the TGI [18] of the same compound?
The TGI was > 16500 nM.

What about the GI50 [19] of the same compound?
Its GI50 is 646 nM.

What about the TGI [19] of the same compound?
Its TGI is > 16500 nM.

And the GI50 [20]?
The GI50 was 945 nM.

What about the TGI [20] of the same compound?
The TGI was > 16500 nM.

What about the GI50 [21] of the same compound?
Its GI50 is 445 nM.

What about the TGI [21] of the same compound?
Its TGI is 1100 nM.

And the GI50 [22]?
The GI50 was 1030 nM.

And the TGI [22]?
Its TGI is > 16500 nM.

And the GI50 [23]?
Its GI50 is 762 nM.

What about the TGI [23] of the same compound?
The TGI was > 16500 nM.

What about the GI50 [24] of the same compound?
The GI50 was 1120 nM.

What about the TGI [24] of the same compound?
Its TGI is > 16500 nM.

And the GI50 [25]?
The GI50 was 743 nM.

And the TGI [25]?
Its TGI is > 16500 nM.

And the GI50 [26]?
The GI50 was 8690 nM.

And the TGI [26]?
Its TGI is > 16500 nM.

What about the GI50 [27] of the same compound?
Its GI50 is > 16500 nM.

And the TGI [27]?
The TGI was > 16500 nM.

And the GI50 [28]?
Its GI50 is 4160 nM.

What about the TGI [28] of the same compound?
Its TGI is > 16500 nM.

What about the GI50 [29] of the same compound?
Its GI50 is 2300 nM.

What about the TGI [29] of the same compound?
Its TGI is 8660 nM.

What about the GI50 [30] of the same compound?
Its GI50 is 3500 nM.

And the TGI [30]?
Its TGI is 14600 nM.

What about the GI50 [31] of the same compound?
Its GI50 is 855 nM.

And the TGI [31]?
The TGI was > 16500 nM.

What about the GI50 [32] of the same compound?
The GI50 was 1250 nM.

What about the TGI [32] of the same compound?
The TGI was > 16500 nM.

And the GI50 [33]?
Its GI50 is 1220 nM.

And the TGI [33]?
Its TGI is > 16500 nM.

And the GI50 [34]?
Its GI50 is 490 nM.

What about the TGI [34] of the same compound?
Its TGI is 2620 nM.

And the GI50 [35]?
Its GI50 is 1200 nM.

And the TGI [35]?
The TGI was > 16500 nM.

And the GI50 [36]?
The GI50 was 1210 nM.

And the TGI [36]?
The TGI was 5990 nM.

What about the GI50 [37] of the same compound?
The GI50 was 663 nM.

And the TGI [37]?
Its TGI is > 16500 nM.

And the GI50 [38]?
Its GI50 is 814 nM.

What about the TGI [38] of the same compound?
Its TGI is > 16500 nM.

And the GI50 [39]?
The GI50 was 583 nM.

What about the TGI [39] of the same compound?
Its TGI is 6840 nM.

What about the GI50 [40] of the same compound?
The GI50 was 2740 nM.

And the TGI [40]?
The TGI was > 16500 nM.

What about the GI50 [41] of the same compound?
The GI50 was > 16500 nM.

What about the TGI [41] of the same compound?
The TGI was > 16500 nM.

What about the GI50 [42] of the same compound?
The GI50 was 5830 nM.

What about the TGI [42] of the same compound?
Its TGI is > 16500 nM.

What about the GI50 [43] of the same compound?
The GI50 was 1400 nM.

And the TGI [43]?
Its TGI is > 16500 nM.

And the GI50 [44]?
Its GI50 is 850 nM.

And the TGI [44]?
The TGI was > 16500 nM.

What about the GI50 [45] of the same compound?
The GI50 was 749 nM.

And the TGI [45]?
The TGI was > 16500 nM.

And the GI50 [46]?
The GI50 was 509 nM.

And the TGI [46]?
Its TGI is > 16500 nM.

What about the GI50 [47] of the same compound?
The GI50 was 4250 nM.

What about the TGI [47] of the same compound?
The TGI was > 16500 nM.

And the GI50 [48]?
The GI50 was 613 nM.

And the TGI [48]?
Its TGI is > 16500 nM.

What about the GI50 [49] of the same compound?
The GI50 was 446 nM.

And the TGI [49]?
Its TGI is 1430 nM.

And the GI50 [50]?
The GI50 was 631 nM.

And the TGI [50]?
The TGI was 6050 nM.

What about the GI50 [51] of the same compound?
The GI50 was 7750 nM.

What about the TGI [51] of the same compound?
The TGI was > 16500 nM.

And the GI50 [52]?
Its GI50 is 724 nM.

And the TGI [52]?
The TGI was > 16500 nM.

And the GI50 [53]?
The GI50 was 6270 nM.

And the TGI [53]?
The TGI was > 16500 nM.

What about the GI50 [54] of the same compound?
Its GI50 is 3260 nM.

What about the TGI [54] of the same compound?
Its TGI is > 16500 nM.
